Read-outs that look alike come from different tables or passages of the source.
Key:
Aedes aegypti = assay: In vitro ingestion activity against adult mosquitoes (artificial feeding, bovine blood); details: read-out: Mortality % R1 + R2
Protocol: Aedes aegypti (Louisiana Biologicals Inc., New Orleans, La.) eggs were allowed to hatch, close, and age between 3-5 days in an environmental chamber at 26° C., 80% humidity with light/dark cycles.
(§1) For mosquito ingestion tests, serial dilutions of the compound stock were performed using DMSO to achieve the desired range for EC50 and EC90 determination. An aliquot of each compound dilution was added to organic bovine blood with a final DMSO concentration of 0.5% and placed in a temperature-controlled artificial feeding container.
Compounds tested were: the C1 racemate, C1 (R) enantiomer, and the C1 (S) enantiomer. For Trial 3, the C1 (R) enantiomer and the C1 (S) enantiomer were further chiral purified to achieve >99% purity.
(§2) For both contact and ingestion assays, five female Aedes aegypti adults were added to each vial or cage. The test vials for contact assays were held in an environmental chamber at 24° C., 80% humidity with light/dark cycles (12 hours each). The cages for mosquito ingestion assays were held in a temperature-controlled artificial feeding apparatus to allow continual access to organic bovine blood containing the desired concentration of compound. Fresh aliquots of compound-spiked bovine blood were provided daily for the duration of the study.
Assessment of mortality/knockdown was performed at various time points between 30 minutes and 24 hours post infestation. Mosquitoes showing no movement or mosquitoes that were knocked down were noted as dead. Results from trial 1 and trial 2 contact assays are shown in Tables 12 and 13, respectively and the results from trial 3 mosquito ingestion assay is shown in table 14.
For the mosquito contact and ingestion assays, each replicate contained 5 mosquitoes. For ease of calculation, the two replicates were added to equal a total of 10 mosquitoes.

Ctenocephalides felis = assay: In vitro ingestion activity against fleas (artificial feeding, bovine blood); details: for mortality at 0.003 ppm: Trial 3, dose 0.003 ppm; for mortality at 0.012 ppm: Trial 3, dose 0.012 ppm; for mortality at 0.049 ppm: Trial 3, dose 0.049 ppm; for mortality at 0.2 ppm: Trial 3, dose 0.20 ppm; for mortality at 0.78 ppm: Trial 3, dose 0.78 ppm; for mortality at 3.125 ppm: Trial 3, dose 3.125 ppm; for mortality at 12.5 ppm: Trial 3, dose 12.5 ppm; for mortality at 50 ppm: Trial 3, dose 50 ppm
Protocol: Ctenocephalides felis (Avista Pharma, Inc., RTP, NC), 1-7days post hatch, held in an environmental chamber at 24° C., 85% humidity.
as §1, with “flea” for “mosquito”, “an” for “a temperature-controlled”
Compounds tested were C1 racemate, the C1 (R) enantiomer, and the C1 (S) enantiomer. For Trial 3, the C1 (R) enantiomer and the C1 (S) enantiomer were further chiral purified to achieve >99% purity.
as §2, with “ten newly emerged unfed adult fleas, 0-7 days old Ctenocephalides felis, from a laboratory colony,” for “five female Aedes aegypti adults”, “aspirated into” for “added to”, “flea” for “mosquito”
Fleas were evaluated for percent mortality at various time points between 2 hours and 48 hours post infestation. Fleas showing normal movement and/or jumping ability were considered viable and those showing no movement after tapping the vials were scored as dead.

## O=C(CC(F)(F)F)N1CC2(C1)OCc1cc(C3=NS[C@](c4cc(Cl)c(F)c(Cl)c4)(C(F)(F)F)C3)ccc12 [C1 (R) enantiomer, (R)-1-[6-[5-(3,5-dichloro-4-fluoro-phenyl)-5-(trifluoromethyl)-4H-isothiazol-3-yl]spiro[1H-isobenzofuran-3,3′-azetidine]-1′-yl]-3,3,3-trifluoro-propan-1-one]
Aedes aegypti; 24 h
  mortality at 0.049 ppm: 40%
  mortality at 0.2 ppm: 30%
  mortality at 0.78 ppm: 75%
  mortality at 3.125 ppm: 100%
  mortality at 12.5 ppm: 100%
  mortality at 50 ppm: 100%
Aedes aegypti
  mortality at 0.049 ppm: 10%
  mortality at 0.2 ppm: 10%
  mortality at 0.78 ppm: 0%
  mortality at 3.125 ppm: 11.1%
  mortality at 12.5 ppm: 100%
  mortality at 50 ppm: 88.9%
Ctenocephalides felis; 6 h, Rep1
  mortality at 0.003 ppm: 0%
  mortality at 0.012 ppm: 0%
  mortality at 0.049 ppm: 0%
  mortality at 0.2 ppm: 0%
  mortality at 0.78 ppm: 0%
  mortality at 3.125 ppm: 0%
  mortality at 12.5 ppm: 80%
  mortality at 50 ppm: 100%
Ctenocephalides felis; 6 h, Rep2
  mortality at 0.003 ppm: 0%
  mortality at 0.012 ppm: 0%
  mortality at 0.049 ppm: 0%
  mortality at 0.2 ppm: 0%
  mortality at 0.78 ppm: 0%
  mortality at 3.125 ppm: 20%
  mortality at 12.5 ppm: 40%
  mortality at 50 ppm: 100%
Ctenocephalides felis; 24 h, Rep1
  mortality at 0.003 ppm: 0%
  mortality at 0.012 ppm: 0%
  mortality at 0.049 ppm: 0%
  mortality at 0.2 ppm: 0%
  mortality at 0.78 ppm: 0%
  mortality at 3.125 ppm: 0%
  mortality at 12.5 ppm: 80%
  mortality at 50 ppm: 100%
Ctenocephalides felis; 24 h, Rep2
  mortality at 0.003 ppm: 0%
  mortality at 0.012 ppm: 0%
  mortality at 0.049 ppm: 0%
  mortality at 0.2 ppm: 0%
  mortality at 0.78 ppm: 0%
  mortality at 3.125 ppm: 0%
  mortality at 12.5 ppm: 40%
  mortality at 50 ppm: 100%
Ctenocephalides felis; 48 h, Rep1
  mortality at 0.003 ppm: 0%
  mortality at 0.012 ppm: 0%
  mortality at 0.049 ppm: 0%
  mortality at 0.2 ppm: 0%
  mortality at 0.78 ppm: 0%
  mortality at 3.125 ppm: 0%
  mortality at 12.5 ppm: 90%
  mortality at 50 ppm: 100%
Ctenocephalides felis; 48 h, Rep2
  mortality at 0.003 ppm: 0%
  mortality at 0.012 ppm: 0%
  mortality at 0.049 ppm: 0%
  mortality at 0.2 ppm: 0%
  mortality at 0.78 ppm: 0%
  mortality at 3.125 ppm: 0%
  mortality at 12.5 ppm: 60%
  mortality at 50 ppm: 100%

## O=C(CC(F)(F)F)N1CC2(C1)OCc1cc(C3=NS[C@@](c4cc(Cl)c(F)c(Cl)c4)(C(F)(F)F)C3)ccc12 [C1 (S) enantiomer, (S)-1-[6-[5-(3,5-dichloro-4-fluoro-phenyl)-5-(trifluoromethyl)-4H-isothiazol-3-yl]spiro[1H-isobenzofuran-3,3′-azetidine]-1′-yl]-3,3,3-trifluoro-propan-1-one]
Aedes aegypti; 24 h
  mortality at 0.049 ppm: 70%
  mortality at 0.2 ppm: 100%
  mortality at 0.78 ppm: 100%
  mortality at 3.125 ppm: 100%
  mortality at 12.5 ppm: 100%
  mortality at 50 ppm: 100%
Aedes aegypti
  mortality at 0.049 ppm: 0%
  mortality at 0.2 ppm: 44.4%
  mortality at 0.78 ppm: 100%
  mortality at 3.125 ppm: 100%
  mortality at 12.5 ppm: 100%
  mortality at 50 ppm: 100%
Ctenocephalides felis; 6 h, Rep1
  mortality at 0.003 ppm: 0%
  mortality at 0.012 ppm: 0%
  mortality at 0.049 ppm: 0%
  mortality at 0.2 ppm: 10%
  mortality at 0.78 ppm: 80%
  mortality at 3.125 ppm: 100%
  mortality at 12.5 ppm: 100%
  mortality at 50 ppm: 100%
Ctenocephalides felis; 6 h, Rep2
  mortality at 0.003 ppm: 0%
  mortality at 0.012 ppm: 0%
  mortality at 0.049 ppm: 0%
  mortality at 0.2 ppm: 20%
  mortality at 0.78 ppm: 70%
  mortality at 3.125 ppm: 60%
  mortality at 12.5 ppm: 100%
  mortality at 50 ppm: 100%
Ctenocephalides felis; 24 h, Rep1
  mortality at 0.003 ppm: 0%
  mortality at 0.012 ppm: 0%
  mortality at 0.049 ppm: 20%
  mortality at 0.2 ppm: 10%
  mortality at 0.78 ppm: 100%
  mortality at 3.125 ppm: 100%
  mortality at 12.5 ppm: 100%
  mortality at 50 ppm: 100%
Ctenocephalides felis; 24 h, Rep2
  mortality at 0.003 ppm: 0%
  mortality at 0.012 ppm: 0%
  mortality at 0.049 ppm: 10%
  mortality at 0.2 ppm: 50%
  mortality at 0.78 ppm: 90%
  mortality at 3.125 ppm: 80%
  mortality at 12.5 ppm: 100%
  mortality at 50 ppm: 100%
Ctenocephalides felis; 48 h, Rep1
  mortality at 0.003 ppm: 0%
  mortality at 0.012 ppm: 0%
  mortality at 0.049 ppm: 20%
  mortality at 0.2 ppm: 30%
  mortality at 0.78 ppm: 100%
  mortality at 3.125 ppm: 100%
  mortality at 12.5 ppm: 100%
  mortality at 50 ppm: 100%
Ctenocephalides felis; 48 h, Rep2
  mortality at 0.003 ppm: 0%
  mortality at 0.012 ppm: 0%
  mortality at 0.049 ppm: 20%
  mortality at 0.2 ppm: 70%
  mortality at 0.78 ppm: 90%
  mortality at 3.125 ppm: 100%
  mortality at 12.5 ppm: 100%
  mortality at 50 ppm: 100%

Reference: patent US10807992B2, “Single enantiomer antiparasitic compounds” (priority 2017, dated 2020)
